Laboratory results from publication PMC10247784, “Physiological activation of human and mouse bitter taste receptors by bile acids” (Communications Biology, 2023).
Several values for one entry are separate records, joined by “and”; a condition that tells them apart may be missing. Equal entries are not always repeated.

Target: T1, human TAS2R14 (Homo sapiens, UniProt Q9NYV8)
T1 construct: expressed in transfected cells; host or cells: HEK293T-Gα16gust44
T1 sequence (Q9NYV8 1-317): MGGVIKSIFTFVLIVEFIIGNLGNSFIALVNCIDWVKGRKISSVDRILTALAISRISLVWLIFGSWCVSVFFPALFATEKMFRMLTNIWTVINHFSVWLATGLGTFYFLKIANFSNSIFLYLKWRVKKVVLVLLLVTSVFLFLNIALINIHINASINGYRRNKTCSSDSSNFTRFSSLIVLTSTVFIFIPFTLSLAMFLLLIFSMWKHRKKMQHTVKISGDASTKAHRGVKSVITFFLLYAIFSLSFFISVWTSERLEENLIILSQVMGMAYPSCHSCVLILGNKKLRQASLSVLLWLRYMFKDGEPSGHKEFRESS
Assay: Calcium imaging assay (FLIPR), HEK293T-Gα16gust44 cells transfected with human TAS2R14
Type: cell-based
Conditions: for RLU: TAS2R14 trace
In short: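 Calcium responses via FLIPR in receptor-transfected HEK293T-Gα16gust44 cells (Fluo-4-AM, 2.5 mM probenecid), after mock-signal subtraction and normalization to baseline and buffer (ΔF/F). Threshold concentration is the lowest dose differing from mock cells at p < 0.01 (Student's t-test), from three biological replicates in duplicate.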

**Q.** What does the source list for `C[C@H](CCC(=O)NCC(=O)O)[C@H]1CC[C@H]2[C@@H]3[C@H](O)C[C@@H]4C[C@H](O)CC[C@]4(C)[C@H]3C[C@H](O)[C@]12C` [Glycocholic Acid, glycocholic acid]?
**A.** Efficacy = maximal amplitude (ΔF/F) (TAS2R14, bile acids, mean): 0.2451; Efficacy (maximal amplitude ΔF/F), individual data points (TAS2R14, bile acids, single replicates, listed as GCA): 0.2248 and 0.2913 and 0.2191; Δ F/F (TAS2R14, conc. 0,01 mM): 0.002092; Δ F/F (TAS2R14, conc. 0,1 mM): 0.02639; Δ F/F (TAS2R14, conc. 0,03 mM): 0.01392; Δ F/F (TAS2R14, conc. 0,3 mM): 0.06546; Δ F/F (TAS2R14, conc. 0,001 mM): 0.007446; Δ F/F (TAS2R14, conc. 1 mM): 0.2451; Δ F/F (TAS2R14, conc. 0,003 mM): 0.001619; RLU (Time (s) 0): 0 RLU; RLU (Time (s) 2 (Taurocholic Acid 2.016)): -6.072 RLU; RLU (Time (s) 4 (Taurocholic Acid 4.016)): -9.1 RLU; RLU (Time (s) 6 (Taurocholic Acid 6.016)): -27.0469 RLU; RLU (Time (s) 8 (Taurocholic Acid 8.016)): -30.0405 RLU; RLU (Time (s) 12 (Taurocholic Acid 12.016)): -37.9898 RLU; RLU (Time (s) 14 (Taurocholic Acid 14.016)): -36.9901 RLU; RLU (Time (s) 16 (Taurocholic Acid 16.016)): -51.9041 RLU; RLU (Time (s) 18 (Taurocholic Acid 18.016)): -34 RLU; RLU (Time (s) 18.797 (Chenodeoxycholic Acid 18.765)): -73.9735 RLU; RLU (Time (s) 20.797 (Chenodeoxycholic Acid 20.781)): -100.333 RLU; RLU (Time (s) 22.797 (Chenodeoxycholic Acid 22.781)): -58.0996 RLU; RLU (Time (s) 24.797 (Chenodeoxycholic Acid 24.781)): -11.7946 RLU; RLU (Time (s) 26.797 (Chenodeoxycholic Acid 26.781)): -4.829 RLU; RLU (Time (s) 28.797 (Chenodeoxycholic Acid 28.781)): -12.95 RLU; RLU (Time (s) 30.797 (Chenodeoxycholic Acid 30.781)): 25.2324 RLU; RLU (Time (s) 32.797 (Chenodeoxycholic Acid 32.781)): 58.2752 RLU; RLU (Time (s) 34.797 (Chenodeoxycholic Acid 34.781)): 56.7501 RLU; RLU (Time (s) 36.797 (Chenodeoxycholic Acid 36.781)): 94.7938 RLU; RLU (Time (s) 38.797 (Chenodeoxycholic Acid 38.781)): 109.443 RLU; RLU (Time (s) 40.797 (Chenodeoxycholic Acid 40.781)): 134.729 RLU; RLU (Time (s) 42.797 (Chenodeoxycholic Acid 42.781)): 165.138 RLU; RLU (Time (s) 44.797 (Chenodeoxycholic Acid 44.781)): 223.768 RLU; RLU (Time (s) 46.797 (Chenodeoxycholic Acid 46.781)): 253.169 RLU; RLU (Time (s) 48.797 (Chenodeoxycholic Acid 48.781)): 284.606 RLU; RLU (Time (s) 50.797 (Chenodeoxycholic Acid 50.781)): 322.537 RLU; RLU (Time (s) 52.797 (Chenodeoxycholic Acid 52.781)): 365.455 RLU; RLU (Time (s) 54.797 (Chenodeoxycholic Acid 54.781)): 404.11 RLU; RLU (Time (s) 56.797 (Chenodeoxycholic Acid 56.781)): 424.679 RLU; RLU (Time (s) 58.797 (Chenodeoxycholic Acid 58.781)): 448.405 RLU; RLU (Time (s) 60.797 (Chenodeoxycholic Acid 60.781)): 513.015 RLU; RLU (Time (s) 62.797 (Chenodeoxycholic Acid 62.781)): 520.328 RLU; RLU (Time (s) 64.797 (Chenodeoxycholic Acid 64.781)): 518.587 RLU; RLU (Time (s) 66.797 (Chenodeoxycholic Acid 66.781)): 566.626 RLU; RLU (Time (s) 68.797 (Chenodeoxycholic Acid 68.781)): 571.358 RLU; RLU (Time (s) 70.797 (Chenodeoxycholic Acid 70.781)): 583.853 RLU; RLU (Time (s) 72.797 (Chenodeoxycholic Acid 72.781)): 622.789 RLU; RLU (Time (s) 74.797 (Chenodeoxycholic Acid 74.781)): 701.49 RLU; RLU (Time (s) 76.797 (Chenodeoxycholic Acid 76.781)): 688.581 RLU; RLU (Time (s) 78.797 (Chenodeoxycholic Acid 78.781)): 706.104 RLU; RLU (Time (s) 80.797 (Chenodeoxycholic Acid 80.781)): 737.493 RLU; RLU (Time (s) 82.797 (Chenodeoxycholic Acid 82.781)): 736.745 RLU; RLU (Time (s) 84.797 (Chenodeoxycholic Acid 84.781)): 766.635 RLU; RLU (Time (s) 86.797 (Chenodeoxycholic Acid 86.781)): 784.026 RLU; RLU (Time (s) 88.797 (Chenodeoxycholic Acid 88.781)): 835.93 RLU; RLU (Time (s) 90.797 (Chenodeoxycholic Acid 90.781)): 879.758 RLU; RLU (Time (s) 92.797 (Chenodeoxycholic Acid 92.781)): 905.014 RLU; RLU (Time (s) 94.797 (Chenodeoxycholic Acid 94.781)): 871.313 RLU; RLU (Time (s) 96.797 (Chenodeoxycholic Acid 96.781)): 875.012 RLU; RLU (Time (s) 98.797 (Chenodeoxycholic Acid 98.781)): 900.527 RLU; RLU (Time (s) 100.797 (Chenodeoxycholic Acid 100.781)): 907.622 RLU; RLU (Time (s) 102.797 (Chenodeoxycholic Acid 102.781)): 872.83 RLU; RLU (Time (s) 104.797 (Chenodeoxycholic Acid 104.781)): 919.127 RLU; RLU (Time (s) 106.797 (Chenodeoxycholic Acid 106.781)): 885.988 RLU; RLU (Time (s) 108.797 (Chenodeoxycholic Acid 108.781)): 899.974 RLU; RLU (Time (s) 110.797 (Chenodeoxycholic Acid 110.781)): 929.16 RLU; RLU (Time (s) 112.797 (Chenodeoxycholic Acid 112.781)): 924.683 RLU; RLU (Time (s) 114.797 (Chenodeoxycholic Acid 114.781)): 936.987 RLU; RLU (Time (s) 116.797 (Chenodeoxycholic Acid 116.781)): 927.195 RLU; RLU (Time (s) 118.797 (Chenodeoxycholic Acid 118.781)): 907.689 RLU; RLU (Time (s) 120.797 (Chenodeoxycholic Acid 120.781)): 904.35 RLU; RLU (Time (s) 122.797 (Chenodeoxycholic Acid 122.781)): 945.812 RLU; RLU (Time (s) 124.797 (Chenodeoxycholic Acid 124.781)): 947.759 RLU; RLU (Time (s) 126.797 (Chenodeoxycholic Acid 126.781)): 937.139 RLU; RLU (Time (s) 128.797 (Chenodeoxycholic Acid 128.781)): 931.219 RLU; RLU (Time (s) 130.797 (Chenodeoxycholic Acid 130.781)): 907.598 RLU; RLU (Time (s) 132.797 (Chenodeoxycholic Acid 132.781)): 937.794 RLU; RLU (Time (s) 134.797 (Chenodeoxycholic Acid 134.781)): 944.802 RLU; RLU (Time (s) 136.797 (Chenodeoxycholic Acid 136.781)): 914.908 RLU; RLU (Time (s) 137.562 (Taurocholic Acid 137.563, Chenodeoxycholic Acid 137.546)): 923.636 RLU; RLU (Time (s) 143.578 (Taurocholic Acid 143.563, Chenodeoxycholic Acid 143.546)): 874.438 RLU; RLU (Time (s) 149.578 (Taurocholic Acid 149.563, Chenodeoxycholic Acid 149.546)): 827.247 RLU; RLU (Time (s) 155.578 (Taurocholic Acid 155.563, Chenodeoxycholic Acid 155.546)): 796.558 RLU; RLU (Time (s) 161.578 (Taurocholic Acid 161.563, Chenodeoxycholic Acid 161.546)): 810.447 RLU; RLU (Time (s) 167.578 (Taurocholic Acid 167.563, Chenodeoxycholic Acid 167.546)): 731.625 RLU; RLU (Time (s) 173.578 (Taurocholic Acid 173.563, Chenodeoxycholic Acid 173.546)): 735.471 RLU; RLU (Time (s) 179.578 (Taurocholic Acid 179.563, Chenodeoxycholic Acid 179.546)): 706.541 RLU; RLU (Time (s) 191.578 (Taurocholic Acid 191.563, Chenodeoxycholic Acid 191.546)): 666.973 RLU; RLU (Time (s) 197.578 (Taurocholic Acid 197.563, Chenodeoxycholic Acid 197.546)): 650.688 RLU; RLU (Time (s) 209.578 (Taurocholic Acid 209.563, Chenodeoxycholic Acid 209.546)): 612.527 RLU; RLU (Time (s) 221.578 (Taurocholic Acid 221.563, Chenodeoxycholic Acid 221.546)): 516.97 RLU; RLU (Time (s) 233.578 (Taurocholic Acid 233.563, Chenodeoxycholic Acid 233.546)): 445.674 RLU; RLU (Time (s) 239.578 (Taurocholic Acid 239.563, Chenodeoxycholic Acid 239.546)): 433.467 RLU; RLU (Time (s) 245.578 (Taurocholic Acid 245.563, Chenodeoxycholic Acid 245.546)): 428.616 RLU; RLU (Time (s) 293.578 (Taurocholic Acid 293.563, Chenodeoxycholic Acid 293.546)): 228.532 RLU; RLU (Time (s) 299.578 (Taurocholic Acid 299.563, Chenodeoxycholic Acid 299.546)): 222.955 RLU; RLU (Time (s) 305.578 (Taurocholic Acid 305.563, Chenodeoxycholic Acid 305.546)): 237.423 RLU; RLU (Time (s) 311.578 (Taurocholic Acid 311.563, Chenodeoxycholic Acid 311.546)): 201.505 RLU; RLU (Time (s) 317.578 (Taurocholic Acid 317.563, Chenodeoxycholic Acid 317.546)): 204.947 RLU; RLU (Time (s) 323.578 (Taurocholic Acid 323.563, Chenodeoxycholic Acid 323.546)): 189.257 RLU; RLU (Time (s) 329.578 (Taurocholic Acid 329.563, Chenodeoxycholic Acid 329.546)): 164.774 RLU; RLU (Time (s) 335.578 (Taurocholic Acid 335.563, Chenodeoxycholic Acid 335.546)): 171.566 RLU; RLU (Time (s) 341.578 (Taurocholic Acid 341.563, Chenodeoxycholic Acid 341.546)): 143.607 RLU; RLU (Time (s) 347.578 (Taurocholic Acid 347.563, Chenodeoxycholic Acid 347.546)): 131.554 RLU; RLU (Time (s) 353.578 (Taurocholic Acid 353.563, Chenodeoxycholic Acid 353.546)): 173.027 RLU; RLU (Time (s) 359.578 (Taurocholic Acid 359.563, Chenodeoxycholic Acid 359.546)): 156.135 RLU; Activation threshold concentration TAS2R14 (lowest concentration with significantly increased fluorescence vs empty vector (p < 0.01)): 100 µM
